Experimental data as given in patent US20100310484A1, “NOVEL PEPTIDES, USE THEREOF IN COSMETIC AND COSMECEUTIC APPLICATIONS, AND COMPOSITIONS COMPRISING SAME” (Innovactiv Inc., priority 2007, published 2010).
Lip = lipoyl residue of R or S configuration

Experiments:
normal human melanocytes = assay: Comet test: internal photo protection against UVA- and UVB-induced DNA strand breaks; format: cell-based; details: peptide 3 × 10^−8 M, 2 h at 37° C., non treated cells 100%, irradiated cells 0%; for CGP (%) coefficient of genomic protection against UVA: then UVA 365 nm, 0.8 J/cm^2; for CGP (%) coefficient of genomic protection against UVB: then UVB 312 nm, 0.06 J/cm^2
Experimental: The proto protective ability of peptides A1 and B1 against UVA and UVB was evaluated using a Comet test according to the protocol of De Meo (De Meo et al. Mutation Res. 1991; 260; 295-306).
The comet test enables the quantification of DNA strand breaks induced by a genotoxic agent.
Material: Primary culture of normal human melanocytes.
Treatment: Cells were treated for 2 h at 37° C. with peptides A1 and B1 separately at 3×10^−8 M and then exposed to UVA (365 nm, 0.8 J/cm^2) or UVB (312 nm/0.06 J/cm^2).
Results are reported in Table 1 below as a coefficient of genomic protection against UVA or UVB (CGP %).

Keratinocytes NCTC-2544 = assay: UVA-induced oxidative lesions (formation of 8-oxo D guanosine) in keratinocytes; format: cell-based, human; details: 24 h + 30 min re-stimulation, UVA 15 J/cm^2, UVA-irradiated cells 100%, non treated cells 0%
Experimental: Material: Keratinocytes NCTC-2544.
Treatment: Keratinocytes were incubated with either peptide (A1 or B1) for 24 h, re-stimulated with the same peptide for 30 minutes and then irradiated with UVA (15 J/cm^2).
Results: The cells exposed to UVs are subjected to damages/lesions induced by oxidative stress. The oxydative damages or lesions were monitored with the formation of 8-oxo D guanosine and the effect of the peptides was expressed as a percentage of inhibition of the production of oxidative damages/lesions.

[1] = test system: IL-1α-induced IL-8 production; assay: Inhibition of IL-1α-induced IL-8 production (ELISA) in normal human dermal fibroblasts; format: cell-based; details: concomitant with IL-1α for 24 hours
glutathione = assay: Glutathione regeneration in the presence of a superoxide anion by fluorometry (HRP/scopoletine); format: biochemical; details: glutathione 10^−4 to 5×10^−5 M with or without peptide 10^−4 to 5×10^−5 M, HRP 3 μg/ml, reading at 180 seconds
Excerpt: Peroxydase (Horseradish peroxydase or HRP) transforms H2O2 into O2^•− which reacts on fluorescent scopoletine and transforms it into a non fluorescent species. A rapid decrease in fluorescence is observed as a function of O2^•− release. In the presence of a scavenger for radical O2^•− (such as glutathione), the decrease in fluorescence is less pronounced. (Antioxidant Characterisation, Methodology and Mechanism, Barry Halliwell, Biochemical Pharmacology, 49, 1341-1348, (1995)) and (The scopoletin assay for hydrogen peroxide, a review and a better method, Jean T. Corbett, J. Biochem. Biophys. Methods, 18, 297-308 (1989)).
Material: A fluorometer set at 394 nm (excitation state) with a slot of 6, and 455 nm (emitting state) with a slot of 8 was used. Continuous data collection was made over a period of 180 seconds. The data obtained at the end of 180 seconds was compared to that obtained with a negative control (without scavenger) and that with a positive control (without free radicals).
The tested mixture comprised HRP (3 μg/ml), scopoletine (5×10^−6M), glutathione (10^−4 to 5×10^−5M), with or without peptide B1 (10^−4 to 5×10^−5 M). An oxygenated water (H2O2) solution was added immediately before reading the first fluorescence measure.
Results are presented in FIG. 3 and are expressed as the percentage of radical scavenging activity as compared to the positive control. […]

For Lip-His-DPhe-Arg-Trp-NH2 [Peptide B1], the “CGP (%) coefficient of genomic protection against UVA” value (normal human melanocytes) was 69.9%, the “CGP (%) coefficient of genomic protection against UVB” value (normal human melanocytes) was 85.8% and the “% INHIBITION of the production of oxidative damages/lesions” value (Keratinocytes NCTC-2544; peptide 1 nM) was −50%. The “% INHIBITION of the production of oxidative damages/lesions” value (Keratinocytes NCTC-2544; peptide 100 nM) was −76%, the “INHIBITION of IL-8 production” value ([1]; peptide 10 pM) was 56% and the “INHIBITION of IL-8 production” value ([1]; peptide 1 nM) was 60%. The “glutathione regeneration activity (radical scavenging activity compared to positive control)” value (glutathione) was “displayed a glutathione regeneration activity”.
For “Lip-Lys-Gly-His-Lys-NH2 (Lip-KGHK-NH2) [Peptide A1]”, the “CGP (%) coefficient of genomic protection against UVA” value (normal human melanocytes) was 93%, the “CGP (%) coefficient of genomic protection against UVB” value (normal human melanocytes) was 46.2% and the “% INHIBITION of the production of oxidative damages/lesions” value (Keratinocytes NCTC-2544; peptide 1 nM) was −27%. For the same substance, the “% INHIBITION of the production of oxidative damages/lesions” value (Keratinocytes NCTC-2544; peptide 100 nM) was −53%.
